Earlier results on two compounds are cited in patent publication US20090118293A1 (priority 2004, published 2009).

Where a name gives a salt, the structure may show the parent alone.

In the case of `NNc1nncc2ccccc12` [hydralazine hydrochloride], the Solubility in water result is “soluble”. The Solubility in alcohol entry (alcohol) is “slightly soluble”. Also, the Solubility in ether result (ether) is “very slightly soluble”.
Turning to `O=[N+]([O-])O[C@H]1CO[C@H]2[C@@H]1OC[C@H]2O[N+](=O)[O-]` [isosorbide dinitrate, 1,4,3,6-dianhydro-D-glucitol-2,5-dinitrate], the Solubility in water result was “sparingly soluble”. Also, for the setting “organic solvents such as ethanol, ether and chloroform”, the “Solubility in organic solvents” value is listed as “freely soluble”.
